Assay [1] deals with control sera (pooled serum of ten healthy LUMC hospital workers; commercial negative donor pooled serum from the Dutch bloodbank). It counts as binding, human. Further details: Binding of Control serum LUMC to linear peptides / Binding of Control serum Blood-bank to linear peptides / Binding of Control serum LUMC to looped peptides / Binding of Control Serum Blood-Bank to Looped peptides / Binding of Control serum LUMC to linear peptides of the protein M of SARS-CoV Urbani / Binding of Control serum Blood-bank to linear peptides of the protein M of SARS-CoV Urbani / Binding of Control serum LUMC to looped peptides of the protein M of SARS-CoV Urbani / Binding of Control Serum Blood-Bank to Looped peptides of the protein M of SARS-CoV Urbani: unit not given here.

Assay [2] deals with rabbit serum obtained by immunizing a rabbit with the SARS-CoV strain Frankfurt 1. It counts as binding. Further details: Binding of a rabbit serum to linear peptides / Binding of a rabbit serum to looped peptides / Rabbit serum linear peptides / Rabbit serum looped peptides / Binding of a rabbit serum to linear peptides of protein N of SARS-CoV Urbani (Rabbit serum linear peptides) / Binding of a rabbit serum to looped/cyclic peptides of protein N of SARS-CoV Urbani (Rabbit serum looped peptides): unit not given here.

Assay [3] concerns antibodies in sera from SARS patients (sera 1a, 1b, 2, 6, 37, 62, London, SARS-yellow, SARS-green). The class given is binding, human. Further details: Binding of serum 6 to linear peptides of protein X1 of SARS-CoV Urbani / Binding of serum 37 to linear peptides of protein X1 of SARS-CoV Urbani / Binding of serum 6 to looped/cyclic peptide (PEPSCAN-ELISA) / Binding of serum 37 to looped/cyclic peptide (PEPSCAN-ELISA) / Binding of serum 37 to looped/cyclic peptides of protein X1 of SARS-CoV Urbani / Binding of serum 6 to linear peptides of protein X2 / Binding of serum 37 to linear peptides of protein X2 / Binding of serum 37 to looped/cyclic peptides of protein X2 of SARS-CoV Urbani / Binding of serum 6 to linear peptides of protein M of SARS-CoV Urbani / Binding of serum 37 to linear peptides of protein M of SARS-CoV Urbani / Binding of serum 6 to looped/cyclic peptides of protein M of SARS-CoV Urbani / Binding of serum 37 to looped/cyclic peptides of protein M of SARS-CoV Urbani / Binding of serum 6 to linear peptides of protein X3 of SARS-CoV Urbani / Binding of serum 37 to linear peptides of protein X3 of SARS-CoV Urbani / Binding of serum 37 to looped/cyclic peptides of protein X3 of SARS-CoV Urbani / Binding of serum 6 to linear peptides of protein X4 of SARS-CoV Urbani / Binding of serum 37 to linear peptides of protein X4 of SARS-CoV Urbani / Binding of serum 37 to looped/cyclic peptides of protein X4 of SARS-CoV Urbani / Binding of serum 6 to linear peptides of protein X5 of SARS-CoV Urbani / Binding of serum 37 to linear peptides of protein X5 of SARS-CoV Urbani / Binding of serum 37 to looped/cyclic peptides of protein X5 of SARS-CoV Urbani / Binding of serum 6 to linear peptides of protein N of SARS-CoV Urbani / Binding of serum 37 to linear peptides of protein N of SARS-CoV Urbani / Binding of serum 6 to linear peptide (PEPSCAN-ELISA) / Binding of serum 1a to looped/cyclic peptides of protein N of SARS-CoV Urbani / Binding of serum 1b to looped/cyclic peptides of protein N of SARS-CoV Urbani / Binding of serum 2 to looped/cyclic peptides of protein N of SARS-CoV Urbani / Binding of serum 6 to looped/cyclic peptides of protein N of SARS-CoV Urbani / Binding of serum 37 to looped/cyclic peptides of protein N of SARS-CoV Urbani / Binding of serum 62 to looped/cyclic peptides of protein N of SARS-CoV Urbani / Binding of serum London to looped/cyclic peptides of protein N of SARS-CoV Urbani / Binding of serum SARS-green to looped/cyclic peptides of protein N of SARS-CoV Urbani: unit not given here.

With MSRRRLLACLCKHKK, in assay [1], the “Binding of Control Serum Blood-Bank to Looped peptides” value is 0.3, the “Binding of Control serum Blood-bank to linear peptides” value came to 0.7, the “Binding of Control serum LUMC to linear peptides” value came to 0.5 and the “Binding of Control serum LUMC to looped peptides” value is 0.2. In assay [2], the “Binding of a rabbit serum to linear peptides” value turned out to be 0.2 and the “Binding of a rabbit serum to looped peptides” value amounted to 0.3. Further, in assay [3], the “Binding of serum 1a to looped/cyclic peptides of protein X2 of SARS-CoV Urbani” value came to 0.2, the “Binding of serum 1b to looped/cyclic peptides of protein X2 of SARS-CoV Urbani” value is recorded as 0.1, the “Binding of serum 2 to looped/cyclic peptides of protein X2 of SARS-CoV Urbani” value came out at 0.0 and the “Binding of serum 6 to looped/cyclic peptides of protein X2 of SARS-CoV Urbani” value came to 0.1. Besides, in assay [3], the “Binding of serum 37 to looped/cyclic peptides of protein X2 of SARS-CoV Urbani” value came out at 0.2, the “Binding of serum 62 to looped/cyclic peptides of protein X2 of SARS-CoV Urbani” value is recorded as 0.3, the “Binding of serum London to looped/cyclic peptides of protein X2 of SARS-CoV Urbani” value worked out at 0.1 and the “Binding of serum SARS-green to looped/cyclic peptides of protein X2 of SARS-CoV Urbani” value is 0.1. In assay [3], the “Binding of serum SARS-yellow to looped/cyclic peptides of protein X2 of SARS-CoV Urbani” value was found to be 0.1; the “Recognition of the peptide by sera of SARS-CoV infected individuals, and form (linear, looped/cyclic) in which it is recognized” value is “recognized in linear form”.
MWLSYFVASFRLFAR: in assay [1], the “Binding of Control Serum Blood-Bank to Looped peptides of the protein M of SARS-CoV Urbani” value worked out at 0.7, the “Binding of Control serum Blood-bank to linear peptides of the protein M of SARS-CoV Urbani” value is given as 0.5, the “Binding of Control serum LUMC to linear peptides of the protein M of SARS-CoV Urbani” value was 0.2 and the “Binding of Control serum LUMC to looped peptides of the protein M of SARS-CoV Urbani” value is on record as 0.7. Also, in assay [2], the “Rabbit serum linear peptides” value was 0.4 and the “Rabbit serum looped peptides” value amounted to 0.5. Also, in assay [3], the “Binding of serum 1a to linear peptides of protein M of SARS-CoV Urbani” value came out at 0.6, the “Binding of serum 1b to linear peptides of protein M of SARS-CoV Urbani” value is listed as 0.3, the “Binding of serum 2 to linear peptides of protein M of SARS-CoV Urbani” value is recorded as 0.5 and the “Binding of serum 6 to linear peptides of protein M of SARS-CoV Urbani” value worked out at 0.3. In addition, in assay [3], the “Binding of serum 37 to linear peptides of protein M of SARS-CoV Urbani” value is 0.6, the “Binding of serum 62 to linear peptides of protein M of SARS-CoV Urbani” value is given as 0.7, the “Binding of serum London to linear peptides of protein M of SARS-CoV Urbani” value worked out at 0.3 and the “Binding of serum SARS-green to linear peptides of protein M of SARS-CoV Urbani” value amounted to 0.2. Further, in assay [3], the “Binding of serum SARS-yellow to linear peptides of protein M of SARS-CoV Urbani” value was 0.1; the “Recognition of the peptide by sera of SARS-CoV infected individuals, and form (linear, looped/cyclic) in which it is recognized” value was “recognized in looped/cyclic form”.
As for MWSFNPETNILLNVP, in assay [1], the “Binding of Control Serum Blood-Bank to Looped peptides of the protein M of SARS-CoV Urbani” value worked out at 0.8, the “Binding of Control serum Blood-bank to linear peptides of the protein M of SARS-CoV Urbani” value came to 0.9, the “Binding of Control serum LUMC to linear peptides of the protein M of SARS-CoV Urbani” value amounted to 0.5 and the “Binding of Control serum LUMC to looped peptides of the protein M of SARS-CoV Urbani” value worked out at 0.8. For the same sequence, in assay [2], the “Rabbit serum linear peptides” value came out at 0.4 and the “Rabbit serum looped peptides” value is reported as 0.2. For the same sequence, in assay [3], the “Binding of serum 1a to linear peptides of protein M of SARS-CoV Urbani” value was 0.8, the “Binding of serum 1a to looped/cyclic peptides of protein M of SARS-CoV Urbani” value was 0.8, the “Binding of serum 1b to linear peptides of protein M of SARS-CoV Urbani” value is 0.5 and the “Binding of serum 1b to looped/cyclic peptides of protein M of SARS-CoV Urbani” value came to 0.7. In assay [3], the “Binding of serum 2 to linear peptides of protein M of SARS-CoV Urbani” value was determined as 0.8, the “Binding of serum 2 to looped/cyclic peptides of protein M of SARS-CoV Urbani” value was 0.9, the “Binding of serum 6 to linear peptides of protein M of SARS-CoV Urbani” value was determined as 0.4 and the “Binding of serum 6 to looped/cyclic peptides of protein M of SARS-CoV Urbani” value turned out to be 0.5. Moreover, in assay [3], the “Binding of serum 37 to linear peptides of protein M of SARS-CoV Urbani” value was 0.9, the “Binding of serum 37 to looped/cyclic peptides of protein M of SARS-CoV Urbani” value worked out at 0.8, the “Binding of serum 62 to linear peptides of protein M of SARS-CoV Urbani” value came out at 0.9 and the “Binding of serum 62 to looped/cyclic peptides of protein M of SARS-CoV Urbani” value stood at 0.8. In assay [3], the “Binding of serum London to linear peptides of protein M of SARS-CoV Urbani” value is listed as 0.3, the “Binding of serum London to looped/cyclic peptides of protein M of SARS-CoV Urbani” value stood at 0.2, the “Binding of serum SARS-green to linear peptides of protein M of SARS-CoV Urbani” value is recorded as 0.3 and the “Binding of serum SARS-green to looped/cyclic peptides of protein M of SARS-CoV Urbani” value was found to be 0.3. For the same sequence, in assay [3], the “Binding of serum SARS-yellow to linear peptides of protein M of SARS-CoV Urbani” value was determined as 0.1 and the “Binding of serum SARS-yellow to looped/cyclic peptides of protein M of SARS-CoV Urbani” value was determined as 0.6.
Take NATFFIFNKLVKDPP: in assay [1], the “Binding of Control Serum Blood-Bank to Looped peptides” value is 0.3, the “Binding of Control serum Blood-bank to linear peptides” value is reported as 0.4, the “Binding of Control serum LUMC to linear peptides” value was 0.4 and the “Binding of Control serum LUMC to looped peptides” value is 0.4. Also, in assay [2], the “Binding of a rabbit serum to linear peptides” value came out at 0.1 and the “Binding of a rabbit serum to looped peptides” value was 0.3. In assay [3], the “Binding of serum 1a to linear peptides of protein X1 of SARS-CoV Urbani” value worked out at 0.6, the “Binding of serum 1a to looped/cyclic peptides of protein X1 of SARS-CoV Urbani” value stood at 0.5, the “Binding of serum 1b to linear peptides of protein X1 of SARS-CoV Urbani” value worked out at 0.5 and the “Binding of serum 1b to looped/cyclic peptides of protein X1 of SARS-CoV Urbani” value is reported as 0.3. In assay [3], the “Binding of serum 2 to linear peptides of protein X1 of SARS-CoV Urbani” value worked out at 0.4, the “Binding of serum 2 to looped/cyclic peptides of protein X1 of SARS-CoV Urbani” value came out at 0.3, the “Binding of serum 6 to linear peptides of protein X1 of SARS-CoV Urbani” value was found to be 0.4 and the “Binding of serum 6 to looped/cyclic peptides of protein X1 of SARS-CoV Urbani” value was 0.4. In assay [3], the “Binding of serum 37 to linear peptides of protein X1 of SARS-CoV Urbani” value is on record as 0.5, the “Binding of serum 37 to looped/cyclic peptides of protein X1 of SARS-CoV Urbani” value was determined as 0.4, the “Binding of serum 62 to linear peptides of protein X1 of SARS-CoV Urbani” value stood at 0.4 and the “Binding of serum 62 to looped/cyclic peptides of protein X1 of SARS-CoV Urbani” value is given as 0.4. Besides, in assay [3], the “Binding of serum London to linear peptides of protein X1 of SARS-CoV Urbani” value is 0.2, the “Binding of serum London to looped/cyclic peptides of protein X1 of SARS-CoV Urbani” value turned out to be 0.2, the “Binding of serum SARS-green to linear peptides of protein X1 of SARS-CoV Urbani” value is 0.2 and the “Binding of serum SARS-green to looped/cyclic peptides of protein X1 of SARS-CoV Urbani” value turned out to be 0.2. Besides, in assay [3], the “Binding of serum SARS-yellow to linear peptides of protein X1 of SARS-CoV Urbani” value worked out at 0.2 and the “Binding of serum SARS-yellow to looped/cyclic peptides of protein X1 of SARS-CoV Urbani” value turned out to be 0.0.
Regarding NILLNVPLRGTIVTR, in assay [1], the “Binding of Control Serum Blood-Bank to Looped peptides of the protein M of SARS-CoV Urbani” value is given as 0.8, the “Binding of Control serum Blood-bank to linear peptides of the protein M of SARS-CoV Urbani” value is 0.8, the “Binding of Control serum LUMC to linear peptides of the protein M of SARS-CoV Urbani” value is recorded as 0.3 and the “Binding of Control serum LUMC to looped peptides of the protein M of SARS-CoV Urbani” value is 0.7. Also, in assay [2], the “Rabbit serum linear peptides” value was found to be 0.5 and the “Rabbit serum looped peptides” value is reported as 0.4. Also, in assay [3], the “Binding of serum 1a to linear peptides of protein M of SARS-CoV Urbani” value was 0.7, the “Binding of serum 1b to linear peptides of protein M of SARS-CoV Urbani” value is 0.5, the “Binding of serum 2 to linear peptides of protein M of SARS-CoV Urbani” value was found to be 0.8 and the “Binding of serum 6 to linear peptides of protein M of SARS-CoV Urbani” value is reported as 0.4. In addition, in assay [3], the “Binding of serum 37 to linear peptides of protein M of SARS-CoV Urbani” value came out at 0.6, the “Binding of serum 62 to linear peptides of protein M of SARS-CoV Urbani” value was determined as 0.7, the “Binding of serum London to linear peptides of protein M of SARS-CoV Urbani” value was found to be 0.4 and the “Binding of serum SARS-green to linear peptides of protein M of SARS-CoV Urbani” value turned out to be 0.3. Also, in assay [3], the “Binding of serum SARS-yellow to linear peptides of protein M of SARS-CoV Urbani” value turned out to be 0.1; the “Recognition of the peptide by sera of SARS-CoV infected individuals, and form (linear, looped/cyclic) in which it is recognized” value is “recognized in looped/cyclic form”.
